# Measurements from patent US6737383B1, “Herbicidal oxadiazolidines” (priority 1999, dated 2004).
# Key:
# wheat = test: Test B pre/postemergence wheat; type: in vivo, Triticum aestivum
# Outline: (§1)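 Test chemicals in a non-phytotoxic solvent mixture with surfactant were sprayed preemergence onto planted seeds and postemergence onto plants 2 to 18 cm tall (1- to 4-leaf stage). After twelve to sixteen days in a greenhouse, injury was visually rated against untreated controls from 0 (no effect) to 10 (complete control).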
# wild oat = test: Test B pre/postemergence wild oat; type: in vivo, Avena fatua
# Outline: as §1
# rape = test: Test B pre/postemergence rape; type: in vivo, Brassica napus
# Outline: as §1
# purple nutsedge = test: Test B pre/postemergence purple nutsedge; type: in vivo, Cyperus rotundus
# Outline: as §1
# smallflower flatsedge = test: Test B flood test smallflower flatsedge; type: in vivo, Cyperus difformis; details: Pre-emergence
# Outline: (§2)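 Each value is a visual injury score relative to controls, with 10 meaning complete control and 0 no effect. Evaluation took place twelve to sixteen days after the 2-leaf-stage plants were treated and kept in the greenhouse.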
# cocklebur = test: Test B pre/postemergence cocklebur; type: in vivo, Xanthium strumarium
# Outline: as §1
# crabgrass = test: Test B pre/postemergence crabgrass; type: in vivo, Digitaria sanguinalis
# Outline: as §1
# bamyardgrass = test: Test B flood test barnyardgrass; type: in vivo, Echinochloa crus-galli; details: Pre-emergence
# Outline: as §2
# pigweed = test: Test B pre/postemergence pigweed; type: in vivo, Amaranthus retroflexus
# Outline: as §1
# giant foxtail = test: Test B pre/postemergence giant foxtail; type: in vivo, Setaria faberii
# Outline: as §1
# duck salad = test: Test B flood test duck salad; type: in vivo, Heteranthera limosa; details: Pre-emergence
# Outline: as §2
# morningglory = test: Test B pre/postemergence morningglory; type: in vivo, Ipomoea hederacea
# Outline: as §1
# corn = test: Test B pre/postemergence corn; type: in vivo, Zea mays
# Outline: as §1
# bedstraw = test: Test B pre/postemergence bedstraw; type: in vivo, Galium aparine
# Outline: as §1
# rice = test: Test B flood test rice; type: in vivo, Oryza sativa; details: Pre-emergence
# Outline: as §2
# sugar beet = test: Test B pre/postemergence sugar beet; type: in vivo, Beta vulgaris
# Outline: as §1
# blackgrass = test: Test B pre/postemergence blackgrass; type: in vivo, Alopecurus myosuroides
# Outline: as §1
# soybean = test: Test B pre/postemergence soybean; type: in vivo, Glycine max
# Outline: as §1
# surinam grass = test: Test B pre/postemergence surinam grass; type: in vivo, Brachiaria decumbens
# Outline: as §1
# velvetleaf = test: Test B pre/postemergence velvetleaf; type: in vivo, Abutilon theophrasti
# Outline: as §1
# [1] = Preemergence, Rate 62 g/ha, scale of 0 to 10 where 0 is no effect and 10 is complete control
# [2] = Preemergence, Rate 250 g/ha, scale of 0 to 10 where 0 is no effect and 10 is complete control
# [3] = Preemergence, Rate 500 g/ha, scale of 0 to 10 where 0 is no effect and 10 is complete control
# [4] = Rate 125 g/ha, Preemergence, scale of 0 to 10 where 0 is no effect and 10 is complete control
# [5] = Rate 500 g/ha, Postemergence, scale 0 to 10, 0 no effect, 10 complete control
# [6] = Rate 1000 g/ha, scale 0 to 10 (0 no effect, 10 complete control)
# [7] = Rate 125 g/ha, flood test species, scale 0 to 10 where 0 is no effect and 10 is complete control
# [8] = Rate 250 g/ha, flood-test species, scale 0 to 10, 0 is no effect, 10 is complete control
# [9] = Rate 500 g/ha, flood test species, scale 0 to 10 (0 no effect, 10 complete control)
# [10] = Rate 62 g/ha, Postemergence, scale of 0 to 10 where 0 is no effect and 10 is complete control
# [11] = Rate 125 g/ha, Postemergence, scale 0 to 10
compound,measurement,setting,value
CCOC(=O)C(C)N(C(=O)n1oc(=O)n(CC)c1=O)c1ccc(F)cc1 (stereo not drawn) [Compound 248],Wheat plant response rating,wheat; [1],0
same,Wheat plant response rating,wheat; [2],0
same,"Plant response rating, Wheat",wheat; [3],0
same,Wheat plant response rating,wheat; [4],0
same,Wheat plant response rating,wheat; [5],0
same,Wild oats plant response rating,wild oat; [1],0
same,Wild oats plant response rating,wild oat; [2],0
same,"Plant response rating, Wild oats",wild oat; [3],0
same,Wild oats plant response rating,wild oat; [4],0
same,Wild oats plant response rating,wild oat; [5],0
same,Rape plant response rating,rape; [1],0
same,Rape plant response rating,rape; [2],0
same,"Plant response rating, Rape",rape; [3],0
same,Rape plant response rating,rape; [4],0
same,"Plant response rating (0 to 10; 0 is no effect, 10 is complete control), Rape","rape; Rate 250 g/ha, Postemergence",0
same,Rape plant response rating,rape; [5],0
same,Nutsedge plant response rating,purple nutsedge; [1],0
same,Nutsedge plant response rating,purple nutsedge; [2],0
same,"Plant response rating, Nutsedge",purple nutsedge; [3],0
same,Nutsedge plant response rating,purple nutsedge; [4],0
same,"Plant response rating (0 to 10; 0 is no effect, 10 is complete control), Nutsedge","purple nutsedge; Rate 250 g/ha, Postemergence",0
same,Nutsedge plant response rating,purple nutsedge; [5],0
same,S. Flatsedge plant response rating,smallflower flatsedge; [6],0
same,S. Flatsedge plant response rating,smallflower flatsedge; [7],0
same,S. Flatsedge plant response rating,smallflower flatsedge; [8],0
same,S. Flatsedge plant response rating,smallflower flatsedge; [9],0
same,Cocklebur plant response rating,cocklebur; [1],0
same,Cocklebur plant response rating,cocklebur; [2],0
same,"Plant response rating, Cocklebur",cocklebur; [3],0
same,Cocklebur plant response rating,cocklebur; [10],0
same,Cocklebur plant response rating,cocklebur; [11],0
same,Cocklebur plant response rating,cocklebur; [4],0
same,"Plant response rating (0 to 10; 0 is no effect, 10 is complete control), Cocklebur","cocklebur; Rate 250 g/ha, Postemergence",0
same,Cocklebur plant response rating,cocklebur; [5],0
same,Crabgrass plant response rating,crabgrass; [1],0
same,Crabgrass plant response rating,crabgrass; [2],0
same,"Plant response rating, Crabgrass",crabgrass; [3],0
same,Crabgrass plant response rating,crabgrass; [4],0
same,"Plant response rating (0 to 10; 0 is no effect, 10 is complete control), Crabgrass","crabgrass; Rate 250 g/ha, Postemergence",0
same,Crabgrass plant response rating,crabgrass; [5],0
same,Barnyardgrass plant response rating,bamyardgrass; [6],0
same,Barnyardgrass plant response rating,bamyardgrass; [7],0
same,Barnyardgrass plant response rating,bamyardgrass; [8],0
same,Barnyardgrass plant response rating,bamyardgrass; [9],0
same,Redroot pigweed plant response rating,pigweed; [1],0
same,Redroot pigweed plant response rating,pigweed; [2],0
same,"Plant response rating, Redroot pigweed",pigweed; [3],0
same,Redroot pigweed plant response rating,pigweed; [4],0
same,"Plant response rating (0 to 10; 0 is no effect, 10 is complete control), Redroot pigweed","pigweed; Rate 250 g/ha, Postemergence",0
same,Redroot pigweed plant response rating,pigweed; [5],0
same,Giant foxtail plant response rating,giant foxtail; [1],0
same,Giant foxtail plant response rating,giant foxtail; [2],0
same,"Plant response rating, Giant foxtail",giant foxtail; [3],0
same,Giant foxtail plant response rating,giant foxtail; [4],0
same,"Plant response rating (0 to 10; 0 is no effect, 10 is complete control), Giant foxtail","giant foxtail; Rate 250 g/ha, Postemergence",0
same,Giant foxtail plant response rating,giant foxtail; [5],0
same,Ducksalad plant response rating,duck salad; [6],0
same,Ducksalad plant response rating,duck salad; [7],0
same,Ducksalad plant response rating,duck salad; [8],0
same,Ducksalad plant response rating,duck salad; [9],0
same,Morningglory plant response rating,morningglory; [1],0
same,Morningglory plant response rating,morningglory; [2],0
same,"Plant response rating, Morningglory",morningglory; [3],0
same,Morningglory plant response rating,morningglory; [4],0
same,"Plant response rating (0 to 10; 0 is no effect, 10 is complete control), Morningglory","morningglory; Rate 250 g/ha, Postemergence",0
same,Morningglory plant response rating,morningglory; [5],0
same,Corn plant response rating,corn; [1],0
same,Corn plant response rating,corn; [2],0
same,"Plant response rating, Corn",corn; [3],0
same,Corn plant response rating,corn; [10],0
same,Corn plant response rating,corn; [11],0
same,Corn plant response rating,corn; [4],0
same,"Plant response rating (0 to 10; 0 is no effect, 10 is complete control), Corn","corn; Rate 250 g/ha, Postemergence",0
same,Corn plant response rating,corn; [5],0
same,Bedstraw plant response rating,bedstraw; [1],0
same,Bedstraw plant response rating,bedstraw; [2],0
same,"Plant response rating, Bedstraw",bedstraw; [3],0
same,Bedstraw plant response rating,bedstraw; [10],0
same,Bedstraw plant response rating,bedstraw; [11],0
same,Bedstraw plant response rating,bedstraw; [4],0
same,"Plant response rating (0 to 10; 0 is no effect, 10 is complete control), Bedstraw","bedstraw; Rate 250 g/ha, Postemergence",0
same,Bedstraw plant response rating,bedstraw; [5],0
same,Rice plant response rating,rice; [6],0
same,Rice plant response rating,rice; [7],0
same,Rice plant response rating,rice; [8],0
same,Rice plant response rating,rice; [9],0
same,Sugarbeets plant response rating,sugar beet; [1],0
same,Sugarbeets plant response rating,sugar beet; [2],0
same,"Plant response rating, Sugarbeets",sugar beet; [3],0
same,Sugarbeets plant response rating,sugar beet; [4],0
same,Sugarbeets plant response rating,sugar beet; [5],0
same,Blackgrass plant response rating,blackgrass; [1],0
same,Blackgrass plant response rating,blackgrass; [2],0
same,"Plant response rating, Blackgrass",blackgrass; [3],0
same,Blackgrass plant response rating,blackgrass; [10],0
same,Blackgrass plant response rating,blackgrass; [11],0
same,Blackgrass plant response rating,blackgrass; [4],0
same,"Plant response rating (0 to 10; 0 is no effect, 10 is complete control), Blackgrass","blackgrass; Rate 250 g/ha, Postemergence",0
same,Blackgrass plant response rating,blackgrass; [5],0
same,Soybean plant response rating,soybean; [1],0
same,Soybean plant response rating,soybean; [2],0
same,"Plant response rating, Soybean",soybean; [3],0
same,Soybean plant response rating,soybean; [4],0
same,Soybean plant response rating,soybean; [5],1
same,B. signalgrass plant response rating,surinam grass; [1],0
same,B. signalgrass plant response rating,surinam grass; [2],0
same,"Plant response rating, B. signalgrass",surinam grass; [3],0
same,B. signalgrass plant response rating,surinam grass; [10],0
same,B. signalgrass plant response rating,"surinam grass; Rate 125 g/ha, Postemergence, scale 0 (no effect) to 10 (complete control)",0
same,B. signalgrass plant response rating,surinam grass; [4],0
same,"Plant response rating (0 to 10; 0 is no effect, 10 is complete control), B. signalgrass","surinam grass; Rate 250 g/ha, Postemergence",0
same,B. signalgrass plant response rating,surinam grass; [5],0
same,Velvetleaf plant response rating,velvetleaf; [1],0
same,Velvetleaf plant response rating,velvetleaf; [2],0
same,"Plant response rating, Velvetleaf",velvetleaf; [3],0
same,Velvetleaf plant response rating,velvetleaf; [4],0
same,Velvetleaf plant response rating,velvetleaf; [5],0
